# According to publication PMC11358443, “Polymodal K^+ channel modulation contributes to dual analgesic and anti-inflammatory actions of traditional botanical medicines” (Communications Biology, 2024):
# Legend:
# [1] = target: T1, Kv1.1 (Homo sapiens, UniProt Q09470); assay: TEVC electrophysiology, Xenopus oocytes expressing Kv1.1; format: cell-based; conditions: 100 µM; for Slope / V0.5 Normalized tail current / V0.5 non-normalized tail current: paired control in same table
# Protocol: (§1) We generated human potassium channel cRNA transcripts with the mMessage mMachine kit (Thermo Fisher Scientific, Waltham, MA, USA) according to manufacturer’s instructions, after vector linearization, from cDNA sub-cloned into expression vectors (pTLNx, pXOOM and pMAX). We injected Xenopus laevis oocytes (Xenoocyte, Dexter, MI, USA) with the channel cRNAs (0.5–10 ng) and incubated the oocytes at 16 °C for 1–4 days prior to electrophysiological recording.
# (§2) We performed TEVC at 20–23 °C with an OC-725C amplifier (Warner Instruments, Hamden, CT, USA) and pClamp10 software. Chemicals for recording and oocyte storage solutions were from Sigma-Aldrich (St. Louis, MO). Bath solution contained (in mM): 96 NaCl, 4 KCl, 1 MgCl2, 1 CaCl2, 10 HEPES (pH 7.6). Pipettes were 1–2 MΩ resistance when filled with 3 M KCl. We recorded currents in response to voltage pulses between −120 mV or −80 mV and +40 mV at 10 mV intervals from a holding potential of −80 mV, to yield current–voltage relationships and examine activation kinetics. We recorded and analyzed data using Clampfit (Molecular Devices, Sunnyvale, CA, USA) and Graphpad Prism software (GraphPad, San Diego, CA, USA), stating values as mean ± SEM. We calculated the voltage dependence of activation (V0.5) by measuring tail currents at a voltage pulse of −30 mV (Kv7) or −50 mV (Kv1), then fitted the tail current/voltage relationship with a single Boltzmann function:1 g=(A1−A2)/{1+exp[V1/2−V/Vs]}y+A2 where g is the normalized tail conductance, A1 is the initial value at −∞, A2 is the final value at +∞, V1/2 is the half-maximal voltage of activation and Vs the slope factor. We fitted activation and deactivation kinetics with single exponential functions.
# [2] = system: TREK-1; conditions: read-out: TREK-1 activation EC50; cited from earlier work
# [3] = target: T2, Kv7.5 (Homo sapiens, UniProt Q9NR82); design: method as in PMID 35997997; conditions: cited from earlier work
# T2 sequence (Q9NR82 whole entry): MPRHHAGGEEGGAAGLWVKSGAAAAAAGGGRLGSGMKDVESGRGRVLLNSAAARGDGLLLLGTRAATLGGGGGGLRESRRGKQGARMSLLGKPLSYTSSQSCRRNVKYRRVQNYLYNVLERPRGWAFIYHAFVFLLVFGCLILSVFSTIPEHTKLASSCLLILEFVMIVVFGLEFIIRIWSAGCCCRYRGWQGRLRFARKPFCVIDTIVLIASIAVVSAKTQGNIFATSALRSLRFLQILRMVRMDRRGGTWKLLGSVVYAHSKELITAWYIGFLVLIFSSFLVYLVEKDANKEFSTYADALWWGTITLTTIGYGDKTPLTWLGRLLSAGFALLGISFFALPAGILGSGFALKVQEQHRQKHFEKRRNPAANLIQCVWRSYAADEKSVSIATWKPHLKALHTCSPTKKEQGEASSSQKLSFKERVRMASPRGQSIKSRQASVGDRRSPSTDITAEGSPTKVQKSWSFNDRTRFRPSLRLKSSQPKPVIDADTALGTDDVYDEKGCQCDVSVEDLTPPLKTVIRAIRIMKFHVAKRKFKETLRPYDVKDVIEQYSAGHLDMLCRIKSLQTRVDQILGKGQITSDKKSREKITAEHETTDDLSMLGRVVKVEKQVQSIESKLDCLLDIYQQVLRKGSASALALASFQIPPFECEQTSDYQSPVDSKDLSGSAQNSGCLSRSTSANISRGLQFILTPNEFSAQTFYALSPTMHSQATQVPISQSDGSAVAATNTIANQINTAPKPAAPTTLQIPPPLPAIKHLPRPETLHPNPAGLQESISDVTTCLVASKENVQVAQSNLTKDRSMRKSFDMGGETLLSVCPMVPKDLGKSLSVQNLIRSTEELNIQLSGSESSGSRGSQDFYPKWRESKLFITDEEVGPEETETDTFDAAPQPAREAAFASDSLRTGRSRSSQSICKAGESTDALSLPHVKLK
# [4] = target: T1, Kv1.1; design: method as in PMID 33093824; conditions: cited from earlier work
# [5] = target: T2, Kv7.5; assay: TEVC electrophysiology, Xenopus oocytes expressing Kv7.5; format: cell-based; conditions: 100 µM
# Protocol: as §1, §2
# [6] = system: C57BL/6 mice; design: method as in Abbott et al., 2021 Front. Physiol. 12:777057; conditions: 5 mg/kg morphine; ref Abbott et al., 2021 Front. Physiol. 12:777057; cited from earlier work
# T1 sequence (Q09470 whole entry): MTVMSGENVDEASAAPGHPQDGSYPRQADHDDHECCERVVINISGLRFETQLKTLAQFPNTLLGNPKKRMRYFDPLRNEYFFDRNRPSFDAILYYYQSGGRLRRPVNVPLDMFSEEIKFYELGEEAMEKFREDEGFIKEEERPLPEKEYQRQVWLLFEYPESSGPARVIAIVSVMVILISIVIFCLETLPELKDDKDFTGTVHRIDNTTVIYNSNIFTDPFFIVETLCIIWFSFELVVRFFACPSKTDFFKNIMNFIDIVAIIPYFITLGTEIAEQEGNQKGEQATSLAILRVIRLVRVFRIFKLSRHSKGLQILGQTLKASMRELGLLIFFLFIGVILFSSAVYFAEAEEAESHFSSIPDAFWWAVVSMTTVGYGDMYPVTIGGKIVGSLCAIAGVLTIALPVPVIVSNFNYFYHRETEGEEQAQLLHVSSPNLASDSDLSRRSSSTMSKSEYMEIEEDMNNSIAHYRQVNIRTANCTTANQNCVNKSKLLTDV
compound,measurement,setting,value
"Oc1cc(O)c2c(c1)OC(c1ccc(O)c(O)c1)C(O)C2 (single isomer, unassigned; (+)) [catechin hydrate, (+)-Catechin hydrate]",Slope,[1],6.10 ± 0.15 mV
same,V0.5 Normalized tail current,[1],-37.70 ± 0.45 mV
same,V0.5 non-normalized tail current,[1],-39.60 ± 0.63 mV
"c1ccc(-c2nnn[nH]2)c(Nc2cccc3c2CCCC3)c1 [BL-1249, (5,6,7,8-tetrahydro-naphthalen-1-yl)-[2-(1H-tetrazol-5-yl)-phenyl]-amine]",EC50,[2],1.5 µM
CS(=O)(=O)Nc1ccc(C(=O)NCc2ccc(Cl)cc2Cl)cc1 [ML335],EC50,[2],14 µM
Cc1cc(Cl)ccc1OCCNC(=O)c1cccs1 [ML402],EC50,[2],14 µM
O=C(O)c1cc(O)c(O)c(O)c1 [gallic acid],activity on Kv7.5 compared with tannic acid,[3],active but less efficacious
same,effect on voltage dependence of Kv1.1,[4],negative-shift
O=C(OC[C@H]1OC(O)[C@@](O)(COC(=O)c2cc(O)c(O)c(O)c2)[C@@H]1O)c1cc(O)c(O)c(O)c1 (stereo partly drawn) [hamamelitannin],activity on Kv7.5 expressed in oocytes,[5],inactive
same,Slope,[5]; control 7.66 ± 0.33,7.57 ± 0.17 mV
same,V0.5 Normalized tail current,[5]; control -48.15 ± 1.14,-47.96 ± 0.99 mV
same,V0.5 non-normalized tail current,[5]; control -50.27 ± 1.37,-49.87 ± 1.44 mV
same,effect on EM of oocytes expressing Kv1.1,[1],hyperpolarized the EM
same,effect on Kv1.1,[1],negative-shifted the voltage dependence of Kv1.1 activation
same,Slope,[1],6.51 ± 0.73 mV
same,V0.5 Normalized tail current,[1],-35.11 ± 1.66 mV
same,V0.5 non-normalized tail current,[1],-36.25 ± 1.77 mV
CN1CC[C@]23c4c5ccc(O)c4O[C@H]2[C@@H](O)C=C[C@H]3[C@H]1C5 [morphine],attenuation of early phase paw-licking,[6],40%
